Here are results for eight compounds from PubChem BioAssay (NCI).

Assay in all cases: NCI anticancer screen, dose series, 48 h
In assay [1] the test system is COLO 205 colon.
For assay [2], the system named is DU-145 prostate.
For assay [3], the system named is HCT-15 colon.
The subject of assay [4] is HS 578T breast.
The test system of assay [5] is MALME-3M melanoma.
Assay [6] relates to MCF7 breast.
Assay [7] relates to MDA-N.
The subject of assay [8] is MOLT-4 leukemia.
Assay [9] has as its system OVCAR-3 ovarian.
Assay [10] concerns OVCAR-4 ovarian.
Assay [11] has as its system RPMI-8226 leukemia.
The test system of assay [12] is SF-295 CNS.
Assay [13] concerns SN12C renal.
The subject of assay [14] is SNB-75 CNS.
Assay [15] relates to TK-10 renal.
Assay [16] concerns UO-31 renal.
For assay [17], the system named is HOP-92 NSCLC.
Assay [18] concerns SNB-19 CNS.
The test system of assay [19] is SR leukemia.
The test system of assay [20] is K-562 leukemia.

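Five compound concentrations were applied to cells in 96-well plates for 48 hours; endpoints were derived by simple linear interpolation of the resulting dose-response curve. The concentration for full growth arrest is given as TGI.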

In the case of `CCOc1nnnc2nc[nH]c12`, the TGI in assay [1], in [2], in assay [3], in assay [4], in [5] and in [6] was over 100 µM each time. Moreover, the TGI in assay [7], in [8], in assay [9], in [10], in [11] and in [12] was over 100 µM each time. In addition, the TGI in [13], in assay [14], in assay [15] and in assay [16] was over 100 µM in each case.
Take `CNCCCn1c2ccccc2c2c3c(c(-c4ccsc4)cc21)C(=O)NC3=O`: the TGI in assay [1] is 2.71 µM; in [2] it was 1.89 µM; in assay [3] it was 2.74 µM; in assay [17] it was 2.22 µM; in assay [8] it was over 100 µM; in assay [9] it was 2.6 µM. In addition, the TGI in [10] turned out to be 3.22 µM; in assay [12], 1.71 µM; in [13], 2.7 µM; in [18], 3.06 µM; in [14], 3.43 µM; in [19], 0.349 µM. In addition, the TGI amounted to 3.23 µM in assay [15] and 0.218 µM in [16].
As to `Nc1ccn([C@H]2CO[C@@H](CO)[C@@H]2O)c(=O)n1`, the TGI in assay [1], in [2], in assay [3], in assay [17], in assay [20] and in assay [6] was over 100 µM in each case. Also, the TGI in assay [7], in assay [8], in assay [9], in [10], in [11] and in assay [12] was over 100 µM each time. The TGI in assay [13], in assay [14], in assay [19], in assay [15] and in assay [16] was over 100 µM in each case.
As for `CN(C)/N=C1/CCC(C(F)(F)F)(C(F)(F)F)O1`, the TGI was 31.2 µM in [1]; over 100 µM in [2]; over 100 µM in assay [3]; 70.1 µM in [17]; 88.4 µM in assay [4]; over 100 µM in assay [20]. In addition, the TGI in assay [5] was 61.1 µM; in assay [7], over 100 µM; in assay [8], over 100 µM; in assay [9], 50.7 µM; in [10] it was over 100 µM; in [11] it was 85.5 µM. Also, the TGI in assay [12] was over 100 µM; in assay [13], 81 µM; in [18], over 100 µM; in assay [14], 97.5 µM; in assay [19] it was over 100 µM; in assay [15], over 100 µM. Further, the TGI in [16] is 98.2 µM.
As for `C=CCN1CCC(O)(c2cc(C(=O)OCC)[nH]c2-c2cc(C)no2)C1` (configuration not stated), the TGI in assay [1], in assay [2], in assay [3], in [17], in assay [20] and in [5] was over 100 µM in each case. The TGI in assay [7], in assay [8], in [9], in assay [10], in assay [11] and in assay [12] was over 100 µM each time. The TGI in assay [13], in [18], in assay [14], in assay [15] and in [16] was over 100 µM throughout.
With `Cc1ccc(Cl)c2c(=O)c3ccc(N)cc3sc12`, the TGI was 37.5 µM in assay [1]; over 100 µM in assay [2]; 54.9 µM in assay [3]; 33.6 µM in assay [4]; 48.6 µM in assay [20]; 55.4 µM in assay [6]. Besides, the TGI is over 100 µM in [7]; 50 µM in [8]; 47.7 µM in assay [9]; 42.3 µM in [11]; 31.8 µM in assay [12]; 32.9 µM in assay [13]. In addition, the TGI in [18] is over 100 µM; in [14], 37.8 µM; in assay [15], over 100 µM; in assay [16], 41.2 µM.
Consider `CC(C)(C)OC/C=C(/CO)[C@@H]1C=C[C@H](O)C1`, for which the TGI in assay [1], in assay [3], in assay [20], in [5], in assay [6] and in assay [7] was over 100 µM in each case. In addition, the TGI in assay [8], in assay [9], in [10], in [11], in assay [12] and in [13] was over 100 µM each time. In addition, the TGI in [18], in assay [14] and in assay [16] was over 100 µM each time.
Regarding `CC1CN=C(N(C(=O)Nc2ccc(Cl)c(Cl)c2)c2ccccc2)S1` (configuration not stated), the TGI in [1], in assay [2], in assay [3], in assay [17], in assay [4] and in assay [5] was over 100 µM throughout. In addition, the TGI in assay [6], in [7], in [8], in assay [9], in assay [10] and in assay [11] was over 100 µM in each case. Besides, the TGI in [12], in [13], in assay [18], in [14], in [15] and in [16] was over 100 µM each time.
